Laboratory results taken from patent USRE47141E1, “Methods of treating fibrosis, cancer and vascular injuries” (EWHA University—Industry Collaboration Foundation, priority 2010, dated 2018).

target: ALK5 (Homo sapiens (Human), UniProt P36897); assay: Cell-free assay for inhibition of ALK5 kinase phosphorylation; type: biochemical; settings: not given
Sequence (P36897 34-503): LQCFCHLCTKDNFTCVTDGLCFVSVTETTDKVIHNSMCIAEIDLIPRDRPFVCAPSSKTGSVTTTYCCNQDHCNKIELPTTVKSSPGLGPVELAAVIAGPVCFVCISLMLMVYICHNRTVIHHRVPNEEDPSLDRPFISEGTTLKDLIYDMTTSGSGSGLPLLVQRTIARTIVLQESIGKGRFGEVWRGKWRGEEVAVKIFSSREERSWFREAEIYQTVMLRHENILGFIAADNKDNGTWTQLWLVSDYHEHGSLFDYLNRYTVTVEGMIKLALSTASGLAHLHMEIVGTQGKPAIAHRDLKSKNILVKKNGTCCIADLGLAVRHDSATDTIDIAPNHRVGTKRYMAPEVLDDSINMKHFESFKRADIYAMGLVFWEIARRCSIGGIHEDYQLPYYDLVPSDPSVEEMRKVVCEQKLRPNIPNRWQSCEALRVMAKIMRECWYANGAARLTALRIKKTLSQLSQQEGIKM

Structure (SMILES)	IC50 [nM]
Cc1cccc(-c2[nH]c(CNc3ccccc3C#N)nc2-c2ccc3ncnn3c2)n1 [Example 59, 2-((4-([1,2,4]triazolo[1,5-a]pyridin-6-yl)-5-(6-methylpyridin-2-yl)-1H-imidazol-2-yl)methylamino)benzonitrile]	19.5

same assay, conditions: read-out: IC50 on ALK5 kinase phosphorylation

IC50 [nM]	Structure (SMILES)
24.1	COCc1ccccc1NCc1nc(-c2ccc3ncnn3c2)c(-c2cccc(C)n2)[nH]1 [Example 48, N-((4-([1,2,4]triazolo[1,5-a]pyridin-6-yl)-5-(6-methylpyridin-2-yl)-1H-imidazol-2-yl)methyl)-2-(methoxymethyl)aniline]
12.3	Cc1cccc(-c2[nH]c(CNc3ccccc3OC(F)(F)F)nc2-c2ccc3ncnn3c2)n1 [Example 51, N-((4-([1,2,4]triazolo[1,5-a]pyridin-6-yl)-5-(6-methylpyridin-2-yl)-1H-imidazol-2-yl)methyl)-2-(trifluoromethoxy)aniline]
9.93	CSc1ccccc1NCc1nc(-c2ccc3ncnn3c2)c(-c2cccc(C)n2)[nH]1 [Example 54, N-((4-([1,2,4]triazolo[1,5-a]pyridin-6-yl)-5-(6-methylpyridin-2-yl)-1H-imidazol-2-yl)methyl)-2-(methylthio)aniline]
29.7	Cc1cccc(-c2[nH]c(CNc3ccccc3C(N)=O)nc2-c2ccc3ncnn3c2)n1 [Example 65, 2-((4-([1,2,4]triazolo[1,5-a]pyridin-6-yl)-5-(6-methylpyridin-2-yl)-1H-imidazol-2-yl)methylamino)benzamide]
9.14	Cc1cccc(-c2[nH]c(CNc3cccc(C(N)=O)c3)nc2-c2ccc3ncnn3c2)n1 [Example 66, 3-((4-([1,2,4]triazolo[1,5-a]pyridin-6-yl)-5-(6-methylpyridin-2-yl)-1H-imidazol-2-yl)methylamino)benzamide]
54.6	Cc1cccc(-c2[nH]c(CNc3ccc(C(N)=O)cc3)nc2-c2ccc3ncnn3c2)n1 [Example 67, 4-((4-([1,2,4]triazolo[1,5-a]pyridin-6-yl)-5-(6-methylpyridin-2-yl)-1H-imidazol-2-yl)methylamino)benzamide]
12.8	CC(=O)c1cccc(NCc2nc(-c3ccc4ncnn4c3)c(-c3cccc(C)n3)[nH]2)c1 [Example 70, 1-(3-((4-([1,2,4]triazolo[1,5-a]pyridin-6-yl)-5-(6-methylpyridin-2-yl)-1H-imidazol-2-yl)methylamino)phenyl)ethanone]
59.1	CC(=O)c1ccc(NCc2nc(-c3ccc4ncnn4c3)c(-c3cccc(C)n3)[nH]2)cc1 [Example 71, 1-(4-((4-([1,2,4]triazolo[1,5-a]pyridin-6-yl)-5-(6-methylpyridin-2-yl)-1H-imidazol-2-yl)methylamino)phenyl)ethanone]
39.5	CC(=O)Nc1ccccc1NCc1nc(-c2ccc3ncnn3c2)c(-c2cccc(C)n2)[nH]1 [Example 74, N-(2-((4-([1,2,4]triazolo[1,5-a]pyridin-6-yl)-5-(6-methylpyridin-2-yl)-1H-imidazol-2-yl)methylamino)phenyl)acetamide]
15.4	CC(=O)Nc1cccc(NCc2nc(-c3ccc4ncnn4c3)c(-c3cccc(C)n3)[nH]2)c1 [Example 75, N-(3-((4-([1,2,4]triazolo[1,5-a]pyridin-6-yl)-5-(6-methylpyridin-2-yl)-1H-imidazol-2-yl)methylamino)phenyl)acetamide]
15.3	Cc1cccc(-c2[nH]c(CNc3ccccc3NS(C)(=O)=O)nc2-c2ccc3ncnn3c2)n1 [Example 77, N-(2-((4-([1,2,4]triazolo[1,5-a]pyridin-6-yl)-5-(6-methylpyridin-2-yl)-1H-imidazol-2-yl)methylamino)phenyl)methanesulfonamide]
23.2	CCc1cccc(-c2[nH]c(CNc3ccccc3F)nc2-c2ccc3ncnn3c2)n1 [Example 139, N-((4-([1,2,4]triazolo[1,5-a]pyridin-6-yl)-5-(6-ethylpyridin-2-yl)-1H-imidazol-2-yl)methyl)-2-fluoroaniline]
25.1	Cc1cccc(-c2[nH]c(Cc3ccccc3F)nc2-c2ccc3ncnn3c2)n1 [Example 144, 6-(2-(2-fluorobenzyl)-5-(6-methylpyridin-2-yl)-1H-imidazol-4-yl)-[1,2,4]triazolo[1,5-a]pyridine]

The remaining lines, values behind:

Structure (SMILES)	IC50 [nM]
COCc1cccc(NCc2nc(-c3ccc4ncnn4c3)c(-c3cccc(C)n3)[nH]2)c1 [Example 49, N-((4-([1,2,4]triazolo[1,5-a]pyridin-6-yl)-5-(6-methylpyridin-2-yl)-1H-imidazol-2-yl)methyl)-3-(methoxymethyl)aniline]	15.3
COCc1ccc(NCc2nc(-c3ccc4ncnn4c3)c(-c3cccc(C)n3)[nH]2)cc1 [Example 50, N-((4-([1,2,4]triazolo[1,5-a]pyridin-6-yl)-5-(6-methylpyridin-2-yl)-1H-imidazol-2-yl)methyl)-4-(methoxymethyl)aniline]	50.7
Cc1cccc(-c2[nH]c(CNc3cccc(OC(F)(F)F)c3)nc2-c2ccc3ncnn3c2)n1 [Example 52, N-((4-([1,2,4]triazolo[1,5-a]pyridin-6-yl)-5-(6-methylpyridin-2-yl)-1H-imidazol-2-yl)methyl)-3-(trifluoromethoxy)aniline]	23.4
Cc1cccc(-c2[nH]c(CNc3ccc(OC(F)(F)F)cc3)nc2-c2ccc3ncnn3c2)n1 [Example 53, N-((4-([1,2,4]triazolo[1,5-a]pyridin-6-yl)-5-(6-methylpyridin-2-yl)-1H-imidazol-2-yl)methyl)-4-(trifluoromethoxy)aniline]	60.1
CSc1cccc(NCc2nc(-c3ccc4ncnn4c3)c(-c3cccc(C)n3)[nH]2)c1 [Example 55, N-((4-([1,2,4]triazolo[1,5-a]pyridin-6-yl)-5-(6-methylpyridin-2-yl)-1H-imidazol-2-yl)methyl)-3-(methylthio)aniline]	6.7
CSc1ccc(NCc2nc(-c3ccc4ncnn4c3)c(-c3cccc(C)n3)[nH]2)cc1 [Example 58, N-((4-([1,2,4]triazolo[1,5-a]pyridin-6-yl)-5-(6-methylpyridin-2-yl)-1H-imidazol-2-yl)methyl)-4-(methylthio)aniline]	39.6
Cc1cccc(-c2[nH]c(CNc3cccc(C#N)c3)nc2-c2ccc3ncnn3c2)n1 [Example 60, 3-((4-([1,2,4]triazolo[1,5-a]pyridin-6-yl)-5-(6-methylpyridin-2-yl)-1H-imidazol-2-yl)methylamino)benzonitrile]	4.83
Cc1cccc(-c2[nH]c(CNc3ccc(C#N)cc3)nc2-c2ccc3ncnn3c2)n1 [Example 63, 4-((4-([1,2,4]triazolo[1,5-a]pyridin-6-yl)-5-(6-methylpyridin-2-yl)-1H-imidazol-2-yl)methylamino)benzonitrile]	32.1
Cc1cccc(-c2[nH]c(CNc3cccc(C#N)c3C#N)nc2-c2ccc3ncnn3c2)n1 [Example 64, 3-((4-([1,2,4]triazolo[1,5-a]pyridin-6-yl)-5-(6-methylpyridin-2-yl)-1H-imidazol-2-yl)methylamino)phthalonitrile]	20.6
Cc1cccc(-c2[nH]c(CNc3cccc(CC#N)c3)nc2-c2ccc3ncnn3c2)n1 [Example 68, 2-(3-((4-([1,2,4]triazolo[1,5-a]pyridin-6-yl)-5-(6-methylpyridin-2-yl)-1H-imidazol-2-yl)methylamino)phenyl)acetonitrile]	11
Cc1cccc(-c2[nH]c(CNc3ccc(CC#N)cc3)nc2-c2ccc3ncnn3c2)n1 [Example 69, 2-(4-((4-([1,2,4]triazolo[1,5-a]pyridin-6-yl)-5-(6-methylpyridin-2-yl)-1H-imidazol-2-yl)methylamino)phenyl)acetonitrile]	24.5
COC(=O)c1cccc(NCc2nc(-c3ccc4ncnn4c3)c(-c3cccc(C)n3)[nH]2)c1 [Example 72, Methyl 3-((4-([1,2,4]triazolo[1,5-a]pyridin-6-yl)-5-(6-methylpyridin-2-yl)-1H-imidazol-2-yl)methylamino)benzoate]	16.6
COC(=O)c1ccc(NCc2nc(-c3ccc4ncnn4c3)c(-c3cccc(C)n3)[nH]2)cc1 [Example 73, Methyl 4-((4-([1,2,4]triazolo[1,5-a]pyridin-6-yl)-5-(6-methylpyridin-2-yl)-1H-imidazol-2-yl)methylamino)benzoate]	78
CC(=O)Nc1ccc(NCc2nc(-c3ccc4ncnn4c3)c(-c3cccc(C)n3)[nH]2)cc1 [Example 76, N-(4-((4-([1,2,4]triazolo[1,5-a]pyridin-6-yl)-5-(6-methylpyridin-2-yl)-1H-imidazol-2-yl)methylamino)phenyl)acetamide]	39
Cc1cccc(-c2[nH]c(CNc3cccc(NS(C)(=O)=O)c3)nc2-c2ccc3ncnn3c2)n1 [Example 78, N-(3-((4-([1,2,4]triazolo[1,5-a]pyridin-6-yl)-5-(6-methylpyridin-2-yl)-1H-imidazol-2-yl)methylamino)phenyl)methanesulfonamide]	15.1
Cc1cccc(-c2[nH]c(CNc3ccc(NS(C)(=O)=O)cc3)nc2-c2ccc3ncnn3c2)n1 [Example 79, N-(4-((4-([1,2,4]triazolo[1,5-c]pyridin-6-yl)-5-(6-methylpyridin-2-yl)-1H-imidazol-2-yl)methylamino)phenyl)methanesulfonamide]	46.6
CCc1cccc(-c2[nH]c(CNc3cccc(C#N)c3)nc2-c2ccc3ncnn3c2)n1 [Example 138, 3-((4-([1,2,4]triazolo[1,5-a]pyridin-6-yl)-5-(6-ethylpyridin-2-yl)-1H-imidazol-2-yl)methylamino)benzonitrile]	9.4
Cc1cccc(-c2[nH]c(CN(C)c3ccccc3F)nc2-c2ccc3ncnn3c2)n1 [Example 140, N-((4-([1,2,4]triazolo[1,5-a]pyridin-6-yl)-5-(6-methylpyridin-2-yl)-1H-imidazol-2-yl)methyl)-2-fluoro-N-methylaniline]	49.8
Cc1cccc(-c2[nH]c(CN(C)c3cccc(C#N)c3)nc2-c2ccc3ncnn3c2)n1 [Example 141]	118
Cc1cccc(-c2[nH]c(CN(C)c3cccc(C(N)=O)c3)nc2-c2ccc3ncnn3c2)n1 [Example 142]	153
Cc1cccc(-c2[nH]c(Cc3ccccc3)nc2-c2ccc3ncnn3c2)n1 [Example 143, 6-(2-benzyl-5-(6-methylpyridin-2-yl)-1H-imidazol-4-yl)-[1,2,4]triazolo[1,5-a]pyridine]	19.8
